{"source": "patent US20240114902A1", "about": "“COMPOSITIONS AND METHODS FOR DETERRING OVIPOSITION BY FRUIT FLIES” (The United States of America, as represented by The …, priority 2022, published 2024)", "system": "Bactrocera dorsalis", "experiment": "B. dorsalis spatial deterrence, two-choice traps baited with guava juice", "format": "in vivo", "details": "tested individually", "description": "In addition to CFA, a series of odd-numbered carbon fatty acids (C9:0 to C17:0) and fatty acid methyl esters were evaluated for the spatial deterrence to B. dorsalis that results in oviposition reduction. Table 3 below lists the fatty acid methyl esters tested for spatial repellency for Bactrocera dorsalis. […] FIG. 16A, FIG. 16C, FIG. 16E, FIG. 16G, FIG. 16I, FIG. 16K, FIG. 16M, FIG. 16O, FIG. 16Q, and FIG. 16S show the mean numbers (±SEM) of mated female B. dorsalis flies captured, and FIG. 16B, FIG. 16D, FIG. 16F, FIG. 16H, FIG. 16J, FIG. 16L, FIG. 16N, FIG. 16P, FIG. 16R, and FIG. 16T show the number of B. dorsalis eggs oviposited in traps baited with guava juice (control) and with guava juice plus one of the coconut fatty acid methyl ester compounds in two-choice bioassays. For each test, different letter on the bar indicate a significant difference by Tukey-Kramer tests at P<0.05, n=4.", "data": [{"smiles": "CCCCCCCC(=O)O", "note": "[C8:0, caprylic acid]", "values": [{"measurement": "effect on female B. dorsalis attraction and oviposition to host fruit odors", "value": "significantly reduced"}]}]}
